{"source": "patent US10227362B2", "about": "(priority 2015, dated 2019)", "format_in_all_cases": "cell-based", "key": {"[1]": {"tested_on": "Mycobacterium bovis BCG strain TMC1019 (ATCC35737)", "assay": "microbe, parasite or virus in culture", "settings": "Mycobacterium tuberculosis variant bovis BCG, 24 h, read-out: M. bovis ATCC35737 (ug/mL)"}, "Vero Cell": {"tested_on": "Vero Cell", "assay": "Vero cell cytotoxicity", "settings": "Chlorocebus sabaeus, Vero cells"}, "[2]": {"tested_on": "Mycobacterium tuberculosis H37Rv strain", "assay": "In vitro MIC against M. tuberculosis H37Rv strain (MABA, Alamar Blue)", "method": "Part I: The in vitro efficacy of anti-Mycobacterium tuberculosis compounds was tested using H37Rv strain.\nOn the day of the test, the compound was dissolved in pure DMSO (Sigma 276855-2L) to a concentration of 10 mg/mL which was used as the mother liquor of the compound. 30 μL of DMSO was added to wells of column 2 to 11 s of the v-bottom 96-well plates (Axygen-wipp02280). 30 μL of the mother liquor of the compound was added to the well of column 2, after mixing, 30 μL was taken from the well of column 2 and added to the well of column 3, and then pipetted and mixed. The operation was taken to column 10. Column 11 was free of medicine and contained only 30 μL of DMSO. This was the “motherplate” of the compound. From column 2 to 11, the corresponding concentration of the compound was 5, 2.5, 1.25, 0.625, 0.3125, 0.156, 0.078, 0.039, 0.02, 0 mg/mL. […] A flat bottom 96-well plate (Greiner 655090) was used as a “daughterplate”. 98 μL of 7H9 (Sigma M0178) medium was added to the wells of all daughterplates. 2 μL of compound was extracted from the motherboard and added to the corresponding daughter plate. Line A and H, column 1 and 12 of the daughterplate contained only 7H9 medium.\nThe H37Rv strain in the glycerol cryovial was inoculated into 7H9 medium containing 0.05% Tween 80 and cultured for 4 weeks at 37° C. in a shaker with 200 rpm. The bacterial liquid was washed twice with 7H9 medium containing 0.05% Tween 80 and resuspended in the same medium. The absorbance of the bacteria liquid was adjusted to OD550=0.4-0.5 using the same medium. The bacteria liquid was sub-packed in microcentrifuge tubes and stored at −80° C. Storage time was no more than 1 month. On the day of the test, the packaged bacteria liquid would be […]. The bacteria liquid was diluted 20 times and then diluted 50 times with 7H9 medium, and a total of 1000 times dilution. The bacteria liquid would be used to inoculate on the daughterplate. 100 μL of bacterial liquid was inoculated in each well of the daughterboard, 100 μL 7H9 medium was added to column 12 and without bacteria liquid.\nThe test daughterplate was placed in an incubator at 37° C. and the humidity was maintained at >80%. A week later, 12.5 μL of 7H9 medium containing 20% Tween 80 and 20 μL of Alamar Blue (Invitrogen DAL1100) were added to the well of a column 1 containing bacteria and the well of a column 12 without bacteria every day, and then continue to incubate for 24 hours and observed. When the added Alamar Blue was reduced to pink in 24 hours by the bacteria liquid in the well of column 1, the 7H9 medium containing 20% Tween 80 and Alamar Blue were added to all wells on the test plate and the fluorescence values were measured after incubation for 24 hours at 37° C."}}, "data": [{"smiles": "C[C@]1(CN2CCc3nc(C4CCCCC4)ccc3C2)Cn2cc([N+](=O)[O-])nc2O1", "note": "[Compound 59, (S)-2-((2-Cyclohexyl-7,8-dihydro-1,6-naphthyridin-6(5H)-yl)methyl)-2-methyl-6-nitro-2,3-dihydroimidazo[2,1-b]oxazole]", "values": [{"measurement": "MIC", "setting": "[1]", "result": "< 1", "unit": "µg/mL"}]}, {"smiles": "C[C@]1(CN2CCc3nc(-c4cc(F)ccc4Cl)ccc3C2)Cn2cc([N+](=O)[O-])nc2O1", "note": "[Compound 22, (S)-2-((2-(2-Chloro-5-fluorophenyl)-7,8-dihydro-1,6-naphthyridin-6(5H)-yl)methyl)-2-methyl-6-nitro-2,3-dihydroimidazo[2,1-b]oxazole]", "values": [{"measurement": "MIC", "setting": "[1]", "result": "< 1", "unit": "µg/mL"}]}, {"smiles": "C[C@]1(CN2CCc3nc(-c4ccc(OC(F)(F)F)c(F)c4)ccc3C2)Cn2cc([N+](=O)[O-])nc2O1", "note": "[Compound 11, (S)-2-((2-(3-Fluoro-4-(trifluoromethoxy)phenyl)-7,8-dihydro-1,6-naphthyridin-6(5H)-yl)methyl)-2-methyl-6-nitro-2,3-dihydroimidazo[2,1-b]oxazole]", "values": [{"measurement": "MIC", "setting": "[1]", "result": "1 to 32", "unit": "µg/mL"}]}, {"smiles": "C[C@]1(CN2CCc3nc(N4CCCCC4)ccc3C2)Cn2cc([N+](=O)[O-])nc2O1", "note": "[Compound 28, (S)-2-Methyl-6-nitro-2-((2-(piperidin-1-yl)-7,8-dihydro-1,6-naphthyridin-6(5H)-yl)methyl)-2,3-dihydroimidazo[2,1-b]oxazole]", "values": [{"measurement": "MIC", "setting": "[1]", "result": "< 1", "unit": "µg/mL"}]}, {"smiles": "C[C@]1(CN2CCc3nc(-c4cc(Cl)ccc4F)ccc3C2)Cn2cc([N+](=O)[O-])nc2O1", "note": "[Compound 15, (S)-2-((2-(5-Chloro-2-fluorophenyl)-7,8-dihydro-1,6-naphthyridin-6(5H)-yl)methyl)-2-methyl-6-nitro-2,3-dihydroimidazo[2,1-b]oxazole]", "values": [{"measurement": "MIC", "setting": "[1]", "result": "< 1", "unit": "µg/mL"}]}, {"smiles": "C[C@]1(CN2CCc3nc(-c4cc(F)cc(Cl)c4)ccc3C2)Cn2cc([N+](=O)[O-])nc2O1", "note": "[Compound 21, (S)-2-((2-(3-Chloro-5-fluorophenyl)-7,8-dihydro-1,6-naphthyridin-6(5H)-yl)methyl)-2-methyl-6-nitro-2,3-dihydroimidazo[2,1-b]oxazole]", "values": [{"measurement": "MIC", "setting": "[1]", "result": "< 1", "unit": "µg/mL"}]}, {"smiles": "C[C@]1(CN2CCc3nc(-c4ccc(Cl)cc4F)ccc3C2)Cn2cc([N+](=O)[O-])nc2O1", "note": "[Compound 23, (S)-2-((2-(4-Chloro-2-fluorophenyl)-7,8-dihydro-1,6-naphthyridin-6(5H)-yl)methyl)-2-methyl-6-nitro-2,3-dihydroimidazo[2,1-b]oxazole]", "values": [{"measurement": "MIC", "setting": "[1]", "result": "< 1", "unit": "µg/mL"}]}, {"smiles": "C[C@]1(CN2CCc3nc(-c4ccc(F)c(Cl)c4)ccc3C2)Cn2cc([N+](=O)[O-])nc2O1", "note": "[Compound 18, (S)-2-((2-(3-Chloro-4-fluorophenyl)-7,8-dihydro-1,6-naphthyridin-6(5H)-yl)methyl)-2-methyl-6-nitro-2,3-dihydroimidazo[2,1-b]oxazole]", "values": [{"measurement": "MIC", "setting": "[1]", "result": "< 1", "unit": "µg/mL"}]}, {"smiles": "C[C@]1(CN2Cc3nc(-c4ccc(F)c(F)c4)oc3C2)Cn2cc([N+](=O)[O-])nc2O1", "note": "[Compound 90, (S)-2-(3,4-Difluorophenyl)-5-((2-methyl-6-nitro-2,3-dihydroimidazo[2,1-b]oxazol-2-yl)methyl)-5,6-dihydro-4H-pyrrolo[3,4-d]oxazole]", "values": [{"measurement": "MIC", "setting": "[1]", "result": "< 1", "unit": "µg/mL"}]}, {"smiles": "C[C@]1(CN2CCc3nc(-c4cccc(Cl)c4F)ccc3C2)Cn2cc([N+](=O)[O-])nc2O1", "note": "[Compound 19, (S)-2-((2-(3-Chloro-2-fluorophenyl)-7,8-dihydro-1,6-naphthyridin-6(5H)-yl)methyl)-2-methyl-6-nitro-2,3-dihydroimidazo[2,1-b]oxazole]", "values": [{"measurement": "MIC", "setting": "[1]", "result": "< 1", "unit": "µg/mL"}]}, {"smiles": "C[C@]1(CN2CCc3nc(C4CC4)ccc3C2)Cn2cc([N+](=O)[O-])nc2O1", "note": "[Compound 26, (S)-2-((2-Cyclopropyl-7,8-dihydro-1,6-naphthyridin-6(5H)-yl)methyl)-2-methyl-6-nitro-2,3-dihydroimidazo[2,1-b]oxazole]", "values": [{"measurement": "MIC", "setting": "[1]", "result": "< 1", "unit": "µg/mL"}]}, {"smiles": "CN(c1ccc(F)cc1)c1nc2c(s1)CN(C[C@@]1(C)Cn3cc([N+](=O)[O-])nc3O1)C2", "note": "[Compound 85, (S)—N-(4-Fluorophenyl)-N-methyl-5-((2-methyl-6-nitro-2,3-dihydroimidazo[2,1-b]oxazol-2-yl)methyl)-5,6-dihydro-4H-pyrrolo[3,4-d]thiazol-2-amine]", "values": [{"measurement": "IC50", "setting": "Vero Cell", "result": "> 32", "unit": "µg/mL"}, {"measurement": "MIC", "setting": "[2]", "result": "< 1", "unit": "µg/mL"}, {"measurement": "MIC", "setting": "[1]", "result": "< 1", "unit": "µg/mL"}]}, {"smiles": "C[C@]1(CN2Cc3nc(-c4cc(F)c(F)cc4F)sc3C2)Cn2cc([N+](=O)[O-])nc2O1", "note": "[Compound 83, (S)-2-Methyl-6-nitro-2-((2-(2,4,5-trifluorophenyl)-4H-pyrrolo[3,4-d]thiazol-5(6H)-yl)methyl)-2,3-dihydroimidazo[2,1-b]oxazole]", "values": [{"measurement": "MIC", "setting": "[1]", "result": "< 1", "unit": "µg/mL"}]}, {"smiles": "C[C@]1(CN2CCc3oc(-c4ccc(F)cc4)cc3C2)Cn2cc([N+](=O)[O-])nc2O1", "note": "[Compound 64, (S)-2-(4-Fluorophenyl)-5-((2-methyl-6-nitro-2,3-dihydroimidazo[2,1-b]oxazol-2-yl)methyl)-4,5,6,7-tetrahydrofuro[3,2-c]pyridine]", "values": [{"measurement": "MIC", "setting": "[1]", "result": "< 1", "unit": "µg/mL"}]}, {"smiles": "C[C@]1(CN2CCc3nc(-c4cccc(F)c4F)ccc3C2)Cn2cc([N+](=O)[O-])nc2O1", "note": "[Compound 16, (S)-2-((2-(2,3-Difluorophenyl)-7,8-dihydro-1,6-naphthyridin-6(5H)-yl)methyl)-2-methyl-6-nitro-2,3-dihydroimidazo[2,1-b]oxazole]", "values": [{"measurement": "MIC", "setting": "[1]", "result": "< 1", "unit": "µg/mL"}]}, {"smiles": "C[C@]1(CN2CCc3nc(-c4ccc(C(F)(F)F)cc4)ccc3C2)Cn2cc([N+](=O)[O-])nc2O1", "note": "[Compound 10, (S)-2-Methyl-6-nitro-2-((2-(4-(trifluoromethyl)phenyl)-7,8-dihydro-1,6-naphthyridin-6(5H)-yl)methyl)-2,3-dihydroimidazo[2,1-b]oxazole]", "values": [{"measurement": "IC50", "setting": "Vero Cell", "result": "> 32", "unit": "µg/mL"}, {"measurement": "MIC", "setting": "[2]", "result": "< 1", "unit": "µg/mL"}, {"measurement": "MIC", "setting": "[1]", "result": "< 1", "unit": "µg/mL"}]}, {"smiles": "C[C@]1(CN2CCc3sc(-c4ccc(F)cc4)nc3C2)Cn2cc([N+](=O)[O-])nc2O1", "note": "[Compound 67, (S)-2-((2-(4-Fluorophenyl)-6,7-dihydrothiazolo[4,5-c]pyridin-5(4H)-yl)methyl)-2-methyl-6-nitro-2,3-dihydroimidazo[2,1-b]oxazole]", "values": [{"measurement": "IC50", "setting": "Vero Cell", "result": "> 32", "unit": "µg/mL"}, {"measurement": "MIC", "setting": "[2]", "result": "< 1", "unit": "µg/mL"}, {"measurement": "MIC", "setting": "[1]", "result": "< 1", "unit": "µg/mL"}]}, {"smiles": "C[C@]1(CN2Cc3nc(-c4ccc(OC(F)(F)F)cc4)sc3C2)Cn2cc([N+](=O)[O-])nc2O1", "note": "[Compound 73, (S)-2-Methyl-6-nitro-2-((2-(4-(trifluoromethoxy)phenyl)-4H-pyrrolo[3,4-d]thiazol-5(6H)-yl)methyl)-2,3-dihydroimidazo[2,1-b]oxazole]", "values": [{"measurement": "MIC", "setting": "[1]", "result": "1 to 32", "unit": "µg/mL"}]}, {"smiles": "C[C@]1(CN2CCc3nc(-c4cc(F)cc(F)c4)ncc3C2)Cn2cc([N+](=O)[O-])nc2O1", "note": "[Compound 48, (S)-2-((2-(3,5-Difluorophenyl)-7,8-dihydropyrido[4,3-d]pyrimidin-6(5H)-yl)methyl)-2-methyl-6-nitro-2,3-dihydroimidazo[2,1-b]oxazole]", "values": [{"measurement": "MIC", "setting": "[1]", "result": "< 1", "unit": "µg/mL"}]}, {"smiles": "C[C@]1(CN2CCc3nc(Nc4ccc(F)cc4)ccc3C2)Cn2cc([N+](=O)[O-])nc2O1", "note": "[Compound 33, (S)—N-(4-Fluorophenyl)-6-((2-methyl-6-nitro-2,3-dihydroimidazo[2,1-b]oxazol-2-yl)methyl)-5,6,7,8-tetrahydro-1,6-naphthyridin-2-amine]", "values": [{"measurement": "MIC", "setting": "[1]", "result": "< 1", "unit": "µg/mL"}]}, {"smiles": "C[C@]1(CN2CCc3nc(-c4ccsc4Cl)ccc3C2)Cn2cc([N+](=O)[O-])nc2O1", "note": "[Compound 53, (S)-2-((2-(2-Chlorothiophen-3-yl)-7,8-dihydro-1,6-naphthyridin-6(5H)-yl)methyl)-2-methyl-6-nitro-2,3-dihydroimidazo[2,1-b]oxazole]", "values": [{"measurement": "MIC", "setting": "[1]", "result": "< 1", "unit": "µg/mL"}]}, {"smiles": "C[C@]1(CN2Cc3nc(-c4cc(F)c(F)cc4F)oc3C2)Cn2cc([N+](=O)[O-])nc2O1", "note": "[Compound 94, (S)-5-((2-Methyl-6-nitro-2,3-dihydroimidazo[2,1-b]oxazol-2-yl)methyl)-2-(2,4,5-trifluorophenyl)-5,6-dihydro-4H-pyrrolo[3,4-d]oxazole]", "values": [{"measurement": "MIC", "setting": "[1]", "result": "< 1", "unit": "µg/mL"}]}, {"smiles": "C[C@]1(Cn2cc3nc(-c4ccc(F)cc4)sc3c2)Cn2cc([N+](=O)[O-])nc2O1", "note": "[Compound 75, (S)-2-((2-(4-Fluorophenyl)-5H-pyrrolo[3,4-d]thiazol-5-yl)methyl)-2-methyl-6-nitro-2,3-dihydroimidazo[2,1-b]oxazole]", "values": [{"measurement": "MIC", "setting": "[1]", "result": "1 to 32", "unit": "µg/mL"}]}, {"smiles": "C[C@]1(CN2CCc3nc(-c4cc(F)ccc4F)ccc3C2)Cn2cc([N+](=O)[O-])nc2O1", "note": "[Compound 17, (S)-2-((2-(2,5-Difluorophenyl)-7,8-dihydro-1,6-naphthyridin-6(5H)-yl)methyl)-2-methyl-6-nitro-2,3-dihydroimidazo[2,1-b]oxazole]", "values": [{"measurement": "MIC", "setting": "[1]", "result": "< 1", "unit": "µg/mL"}]}]}
